Assay results as given in patent US11034725B2, “Compositions and methods for treating cardiovascular disease” (Genentech, Inc., priority 2016, dated 2021).
Entries after “also recorded” stand apart in the source; their conditions may differ. Square brackets hold non-standard residues; d marks the D form. Ends that are not written are not given here. Peptide text beside a SMILES is read from it. * marks the point of attachment. hArg = N=C(N)NCCCC[C@H](N)C(=O)O; Pentanoyl = CCCCC(=O)*

Assays:
PCSK9 [1] = molecular target: T1, PCSK9 (Homo sapiens, UniProt Q8NBP7); test: PCSK9/EGF(A) TR-FRET binding assay; conditions: TR-FRET, Example 7; read-out: PCSK9/EGF(A) IC50
PCSK9Δhelix [2] = molecular target: T2, PCSK9Δhelix (Homo sapiens, UniProt Q8NBP7); test: PCSK9Δhelix/Ab20 TR-FRET binding assay
T2 construct: Human PCSK9 construct M1-Q692 with an engineered TEV site (residue deletion Y166, R167); made in house; host or cells: CHO

His-EGF(A)-Fc = His-EGF(A)-Fc TR-FRET counterscreen; conditions: counterscreen, Example 7
[3] = molecular target: T3, PCSK9-R167A:R215A:R218A (PCSK9-AAA) (Homo sapiens, UniProt Q8NBP7, R167A/R215A/R218A); test: FXIa cleavage assay of the P′ helix of PCSK9-AAA; format: biochemical; conditions: immunoblot with anti-N-terminal peptide antibody
T3 construct: made in house; host or cells: CHO (transient)
Description: The PCSK9-AAA mutant (2.6 μM) was incubated with 50 nM FXIa (Haematologic Technologies) in Tris buffer (50 mM Tris, 150 mM NaCl, 4 mM CaCl2, pH 8.0) at room temperature for the indicated time periods. […] After SDS-PAGE of the samples, proteins were transferred to a nitrocellulose membrane using iBlot (Invitrogen). Proteins were then probed with a polyclonal rabbit antibody (1:3000) raised against the PCSK9 N-terminal peptide (^153[…]^168 (SEQ ID NO: 5)), followed with HRP-conjugated donkey anti-rabbit antibody (1:5000, GE Healthcare) using iBind (Invitrogen). PCSK9 signals were detected by ECL (GE Healthcare) and visualized by autoradiography.
Proteins were then probed with a polyclonal rabbit antibody (1:3000) raised against the PCSK9 N-terminal peptide (^153[…]^168 (SEQ ID NO: 5)), followed with HRP-conjugated donkey anti-rabbit antibody (1:5000, GE Healthcare) using iBind (Invitrogen). PCSK9 signals were detected by ECL (GE Healthcare) and visualized by autoradiography.

FXIa = molecular target: T4, FXIa (Homo sapiens, UniProt P03951); test: LC-MS determination of FXIa-mediated cleavage of groove-binding peptides; format: in vitro ADME
T4 construct: purchased Haematologic Technologies
Description: Peptide cleavage was determined by using the calculated molecular weights and by measuring the area under the curves.

PCSK9 [4] = molecular target: T1, PCSK9; test: Phage competition ELISA; format: binding
Description: The sequences of selected clones were fused to the N-terminus of M13 major coat protein (p8) using Kunkel mutagenesis method (Kunkel et al., Methods Enzymol 154, 367-82). The resulting construct was transformed to E. Coli. XL1 blue, single colony was grown in 1 mL 2YT supplemented with 50 μg/mL carbenicillin, 10 μg/mL Tetracycline and M13 KO7 helper phage at 37° C. for 2 h, Kanamycin was added to final concentration of 25 μg/mL, growth was continued at 37° C. for 6 h. The culture was transferred to 30 mL 2YT supplemented with 50 μg/mL carbenicillin and 25 μg/mL kanamycin and grown at 37° C. overnight. The next day, the phage was harvested and purified using the standard protocol (Tonikian et al. Nat Protoc. 2007; 2(6):1368-86). The serially diluted phage solution was applied to the biotinylated PCSK9 and biotinylated PCSK9Δhelix that had been immobilized for 15 min on a 384-well MaxiSorp ImmunoPlate previously coated with 5 μg/mL NeutrAvidin and blocked with Block buffer. The plate was incubated at 4° C. for 1 h, washed 10 times with PT buffer (PBS, 0.05% Tween® 20). The bound phage was detected with anti-M13-HRP and the ELISA signal was read at OD450 nm. The background was ELISA signal that the phage directly bound to NeutrAvidin-coated plate. The data was plotted and the curve fitted with KaleidaGraph. Sub-saturating phage concentration that gave 80% of maximum binding signal was determined by the binding curve.
IC50 measurements were performed by mixing a fixed sub-saturating concentration of peptide-displaying phage with a serial dilution of synthetic peptides in PBT buffer. The mixture was added to plates coated with PCSK9 and PCSK9Δhelix and incubated for 1 h at room temperature. The plates were then washed 10 times with PBT buffer and the bound phage was detected by anti-M13-HRP. The data was plotted, curve fitted and IC50 derived by use of KaleidaGraph. All measurements were repeated 3 times independently.

PCSK9 [5] = molecular target: T1, PCSK9; test: PCSK9 | IC50(uM)
Source text: Where the first naming reader finds the target: head: PCSK9 | IC50(uM)

PCSK9Δhelix [6] = molecular target: T2, PCSK9Δhelix; test: PCSK9Δhelix | IC50(uM)
Source text: Where the first naming reader finds the target: head: PCSK9Δhelix | IC50(uM)

contaminating protease = test: PCSK9 cleavage under crystallization conditions and inhibition by serine protease inhibitors; format: biochemical; conditions: serpins 150 μM, Aprotinin 1.5 mM, 9 days, room temperature
Description: After SDS-PAGE of the samples, the 60 kDa band comprising the PCSK9 catalytic domain and Cys-rich domain (CRD) was analyzed by N-terminal sequencing and the results reported in Table 2.
Samples were analyzed by SDS-PAGE and transferred to a nitrocellulose membrane using iBlot (Invitrogen). Proteins were then probed with a polyclonal rabbit antibody (1:3000) raised against the PCSK9 N-terminal peptide (^153[…]^168 (SEQ ID NO: 5)), followed with HRP-conjugated donkey anti-rabbit antibody (1:5000, GE Healthcare) using iBind (Invitrogen). PCSK9 signals were detected by ECL (GE Healthcare) and visualized by autoradiography. The polyclonal rabbit antibody against the PCSK9 N-terminal peptide ^153[…]^168 (SEQ ID NO: 5) was generated by immunizing rabbits with the synthesized peptide […] (SEQ ID NO: 285), which contained an extra Cys residue at the N-terminus for conjugation to KLH. The polyclonal antibody IgG was purified from rabbit serum using affinity chromatography with resin-immobilized peptide […] (SEQ ID NO: 285) (YenZym Antibodies, LLC, San Francisco, Calif.).

LDLR ectodomain = molecular target: T5, LDLR ectodomain (Homo sapiens, UniProt P01130); test: Biolayer interferometry binding of PCSK9 mutants to LDLR ectodomain
T5 construct: purchased R & D Systems
Source text: In further experiments the previously described PCSK9 mutant PCSK9-R215A:R218A (=PCSK9-AA) (Lipari et al. J Biol Chem. 2012 Dec. 21; 287(52):43482-91), in which the “furin cleavage loop” residues had been changed to Alanine, was used in order to prevent protease cleavage at the susceptible residues R215 and R218. […] Therefore, to direct the FXIa cleavage specifically to the P′ alpha helix residue R160 the triple mutant PCSK9-R167A:R215A:R218A (=PCSK9-AAA) was produced. The binding affinities of PCSK9-AAA and PCSK9-AA to the LDLR ectodomain (R & D Systems) were determined by biolayer interferometry as described (Lipari et al. J Biol Chem. 2012 Dec. 21; 287(52):43482-91).

## CCCCC(=O)N[C@@H](Cc1c[nH]c2ccccc12)C(=O)N[C@@H](CC(N)=O)C(=O)N[C@@H](CC(C)C)C(=O)N[C@H](C(=O)N[C@@H](CCCCNC(=N)N)C(=O)N[C@H](C(=O)NCC(=O)N[C@@H](CC(C)C)C(=O)N[C@H](C(=O)N[C@@H](CCCNC(=N)N)C(N)=O)[C@@H](C)O)[C@@H](C)CC)C(C)C [Compound 118, n-BuC(O)-WNLV(homoR)IGLTR-NH2] (Pentanoyl-WNLV[hArg]IGLTR-NH2)
PCSK9 [1]
  IC50: > 50000 nM
PCSK9Δhelix [2]; versus Compound 112
  increase of inhibition in PCSK9Δhelix/Ab20 assay by homo-arginine replacement: 5 fold
His-EGF(A)-Fc
  IC50: > 50000 nM
[3]
  effect on FXIa-mediated cleavage of the P′ helix of PCSK9-AAA: higher degree; also recorded: able to increase the FXIa-mediated cleavage; also recorded: stronger effect
FXIa; up to 6 h
  peptide cleavage by FXIa: remained intact; also recorded: No cleavage

## SGGSMPWNLERIFALH-NH2 [Compound K9gvpep8]
PCSK9 [4]
  competition with binding of phage-displayed Pep2-8 to PCSK9: did not compete
PCSK9 [5]
  IC50: 1700 ± 166 nM
PCSK9Δhelix [6]
  IC50: 2150 ± 215 nM

## CCCCC(=O)N[C@@H](Cc1c[nH]c2ccccc12)C(=O)N[C@@H](CC(N)=O)C(=O)N[C@@H](CC(C)C)C(=O)N[C@H](C(=O)N[C@@H](CCCNC(=N)N)C(=O)N[C@H](C(=O)NCC(=O)N[C@@H](CC(C)C)C(=O)N[C@H](C(=O)N[C@@H](CCCNC(=N)N)C(N)=O)[C@@H](C)O)[C@@H](C)CC)C(C)C [Compound 112] (Pentanoyl-WNLVRIGLTR-NH2)
PCSK9 [1]
  IC50: > 50000 nM
PCSK9Δhelix [2]; TR-FRET, Example 7, read-out: PCSK9Δhelix/Ab20 IC50
  IC50: 7500 nM
His-EGF(A)-Fc
  IC50: > 50000 nM
[3]
  effect on FXIa-mediated cleavage of the P′ helix of PCSK9-AAA: able to increase the FXIa-mediated cleavage
FXIa; 1 h, with K9-AAA and 50 nM FXIa
  peptide cleaved by FXIa: 34%
FXIa; 6 h, with K9-AAA and 50 nM FXIa
  peptide cleaved by FXIa: 76%
FXIa; isolated protease FXIa (50 nM) with K9-AAA, 1 h, with K9-AAA and 50 nM FXIa, read-out: peptide cleaved by FXIa
  metabolised at 1 h: 34%
FXIa; isolated protease FXIa (50 nM) with K9-AAA, 6 h, with K9-AAA and 50 nM FXIa, read-out: peptide cleaved by FXIa
  metabolised at 6 h: 76%

## alpha1-antitrypsin: more elastase-specific serpin
Contaminating protease
  inhibition of P′ helix cleavage of the Fab33:PCSK9 complex by contaminating protease: did not inhibit cleavage

## antithrombin III
Contaminating protease
  inhibition of P′ helix cleavage of the Fab33:PCSK9 complex by contaminating protease: cleavage was prevented; also recorded: able to prevent proteolytic cleavage

## PCSK9-AA: PCSK9 mutant in which the furin cleavage loop residues R215 and R218 had been changed to Alanine
LDLR ectodomain
  Kd: 260 nM

## SGDLMPWNLVRIGLLR-NH2 [Compound K9gvpep7]
PCSK9 [4]
  competition with binding of phage-displayed Pep2-8 to PCSK9: did not compete
PCSK9 [5]
  IC50: 635 ± 107 nM
PCSK9Δhelix [6]
  IC50: 914 ± 28.3 nM

B1: PCSK9-AAA: triple mutant PCSK9-R167A:R215A:R218A (protein, UniProt Q8NBP7 153-692, looked up, variant R167A R215A R218A)
Proprotein convertase …: SIPWNLERITPPRYAADEYQPPDGGSLVEVYLLDTSIQSDHREIEGRVMVTDFENVPEEDGTAFHAQASKCDSHGTHLAGVVSGRDAGVAKGASMRSLRVLNCQGKGTVSGTLIGLEFIRKSQLVQPVGPLVVLLPLAGGYSRVLNAACQRLARAGVVLVTAAGNFRDDACLYSPASAPEVITVGATNAQDQPVTLGTLGTNFGRCVDLFAPGEDIIGASSDCSTCFVSQSGTSQAAAHVAGIAAMMLSAEPELTLAELRQRLIHFSAKDVINEAWFPEDQRVLTPNLVAALPPSTHGAGWQLFCRTVWSAHSGPTRMATAVARCAPDEELLSCSSFSRSGKRRGERMEAQGGKLVCRAHNAFGGEGVYAIARCCLLPQANCSVHTAPPAEASMGTRVHCHQQGHVLTGCSSHWEVEDLGTHKPPVLRPRGQPNQCVGHREASIHASCCHAPGLECKVKEHGIPAPQEQVTVACEEGWTLTGCSALPGTSHVLGAYAVDNTCVVRSRDVSTTGSTSEGAVTAVAICCRSRHLAQASQELQ
LDLR ectodomain
  Kd: 214 nM
